Laboratory results as given in patent US20210322352A1, “COMPOSITION FOR IMPROVING ENDURANCE AND METHOD OF IMPROVING ENDURANCE USING THE SAME” (PHARMA FOODS INTERNATIONAL CO., LTD., priority 2020, published 2021).

Experiments:
AMPK protein = assay: Relative expression of AMPK protein in a skeletal muscle (western blotting); type: in vivo, mouse; conditions: gastrocnemius muscle
Method: (§1) Specifically, 10 week-old male ICR mice are classified into the group in which normal food is freely ingested and training is not carried out (control group), the group in which a diet of normal food added with 0.5% of GABA (1.8 g for human) is freely ingested and training is not carried out (GABA group), the group in which normal food is freely ingested and training is carried out (training group) and the group in which a diet of normal food added with 0.5% of GABA (1.8 g for human) is freely ingested and training is carried out (GABA training group) (9 mice in each group). During the test period, the above classified mice freely ingested about 2.7 to about 5.0 g/day of normal food or GABA-comprising food per one individual. Regarding the training group and the GABA training group, running was forced for 60 minutes on a schedule of 3 times a week (interval of 1 day or 2 days). This training was continued until 3 days after termination of the below-mentioned third running test. In the training, a treadmill for small animals (Meiquest Ltd.) was used with the gradient of 0 degree to force running at 25 m/minute running speed. […] The amount of protein was quantified in accordance with the method of the TaKaRa BCA Protein Assay Kit (TAKARA BIO INC.) using bovine serum albumin as a standard protein. […]

[1] = system: glycogen in a skeletal muscle (gastrocnemius muscle); assay: Measurement of the amount of glycogen in a skeletal muscle; type: in vivo, mouse; conditions: 0.5% GABA diet
Method: (§2) Specifically, 10 week-old male ICR mice are classified into the group in which normal food is freely ingested and training is not carried out (control group), the group in which a diet of normal food added with 0.5% of GABA (1.8 g for human) is freely ingested and training is not carried out (GABA group), the group in which normal food is freely ingested and training is carried out (training group) and the group in which a diet of normal food added with 0.5% of GABA (1.8 g for human) is freely ingested and training is carried out (GABA training group) (9 mice in each group). During the test period, the above classified mice freely ingested about 2.7 to about 5.0 g/day of normal food or GABA-comprising food per one individual. Regarding the training group and the GABA training group, running was forced for 60 minutes on a schedule of 3 times a week (interval of 1 day or 2 days). This training was continued until 3 days after termination of the below-mentioned third running test. In the training, a treadmill for small animals (Meiquest Ltd.) was used with the gradient of 0 degree to force running at 25 m/minute running speed. Since a mouse will run at the speed of about 6 to 24 m/minute without a load, the running speed of 25 m/minute is a little faster than normal, i.e., low to moderate intensity.

phosphorylated AKT/AKT = assay: Phosphorylated AKT/AKT ratio in a skeletal muscle (western blotting); type: in vivo, mouse; conditions: gastrocnemius muscle
Method: as §2

skeletal muscle = conditions: GABA in addition to whey protein vs whey protein alone; in training; J Clin Med Res. 2019; 11(6):428-434; cited from earlier work
PGC-1α protein = assay: Relative expression of PGC-1α protein in a skeletal muscle (western blotting); type: in vivo, mouse; conditions: gastrocnemius muscle
Method: as §1

insulin in plasma = assay: Measurement of the amount of insulin in plasma; type: in vivo, mouse; conditions: 0.5% GABA diet
Method: (§3) Specifically, 10 week-old male ICR mice are classified into the group in which normal food is freely ingested and training is not carried out (control group), the group in which a diet of normal food added with 0.5% of GABA (1.8 g for human) is freely ingested and training is not carried out (GABA group), the group in which normal food is freely ingested and training is carried out (training group) and the group in which a diet of normal food added with 0.5% of GABA (1.8 g for human) is freely ingested and training is carried out (GABA training group) (9 mice in each group).
During the test period, the above classified mice freely ingested about 2.7 to about 5.0 g/day of normal food or GABA-comprising food per one individual. Regarding the training group and the GABA training group, running was forced for 60 minutes on a schedule of 3 times a week (interval of 1 day or 2 days). This training was continued until 3 days after termination of the below-mentioned third running test. In the training, a treadmill for small animals (Meiquest Ltd.) was used with the gradient of 0 degree to force running at 25 m/minute running speed. Since a mouse will run at the speed of about 6 to 24 m/minute without a load, the running speed of 25 m/minute is a little faster than normal, i.e., low to moderate intensity.
2 days after termination of the final training, blood of a mouse in a group is collected to measure the amount of insulin in plasma. The measurement of the amount of insulin in plasma was carried out as described below using Lbis (registered trademark) Insulin-Mouse T (FUJIFILM Wako Shibayagi Corporation).
96 well plate for turning an antibody into a solid phase was prepared and washed 4 times with a cleaning liquid. 100 μL of biotin binding anti-insulin antibody was added thereto and stirred. […] 100 μL of 1M sulphuric acid solution was respectively added to stop the reaction, measure absorbance (OD 450 nm) and calculate the amount of insulin in plasma.

mitochondrial DNA = assay: Measurement of the amount of mitochondrial DNA in a skeletal muscle (real-time PCR); type: in vivo, mouse; conditions: GABA training group vs control group, GABA group and training group
Method: as §3
(§4) During the test period, the above classified mice freely ingested about 2.7 to about 5.0 g/day of normal food or GABA-comprising food per one individual. Regarding the training group and the GABA training group, running was forced for 60 minutes on a schedule of 3 times a week (interval of 1 day or 2 days). […]
20 to 50 mg of tissue sample was taken out to a 2 mL plastic tube to extract DNA in accordance with the genome DNA purification protocol described in NucleoSpin® DNARapidLyse (TAKARA BIO INC.). The amount of relative expression of the amount of mitochondria with respect to mouse nuclear DNA was quantified with the real-time PCR method using Thermal Cycler Dice® Real TimeSystem II (TAKARA BIO INC.) and set as mitochondrial DNA amount.

myosin 2a protein = assay: Relative expression of myosin 2a in a skeletal muscle (soleus muscle), western blotting; type: in vivo, mouse
Method: as §3
as §4, with “days). This training was continued until 3 days after termination of the below-mentioned third running test.” for “days).”
Two days after termination of the final training, a skeletal muscle (soleus muscle) tissue of mouse was grinded with a biomasher on ice. […] The protein concentration of the protein extraction liquid was measured with a protein assay BCA kit and dilution was carried out with a RIPA buffer so that the protein concentration of the protein extraction liquid would be 4 mg/ml. […]

male ICR mice = assay: Measurement of limit running time using a treadmill; type: in vivo, mouse; conditions: GABA training group vs training group, diet with 0.5% GABA
Method: as §2

NCCCC(=O)O [GABA, γ-aminobutyric acid]
amount of expression of AMPK protein (AMPK protein; GABA training group vs control group, P=0.0008): increased | amount of expression of AMPK protein (AMPK protein; GABA training group vs training group): increased more than the training group | amount of glycogen in the gastrocnemius muscle ([1]; GABA group vs control group, no training, P=0.09): tendency of increase | amount of glycogen in the gastrocnemius muscle ([1]; GABA training group vs training group, P=0.04): significantly increased | phosphorylated AKT/total AKT ratio in a skeletal muscle (phosphorylated AKT/AKT; GABA group vs control group): tendency to decrease | phosphorylated AKT/total AKT ratio in a skeletal muscle (phosphorylated AKT/AKT; GABA training group vs training group, P=0.0001): significantly decreased | amount of fat removed muscle (skeletal muscle): increases | muscle hypertrophy (skeletal muscle): stimulates more muscle hypertrophy | amount of expression of PGC-1α protein in a skeletal muscle (PGC-1α protein; GABA training group vs training group, P=0.01): significantly increased | amount of expression of PGC-1α protein in a skeletal muscle (PGC-1α protein; vs control group (group not given, presumably GABA group)): tendency of increase | amount of insulin in plasma (insulin in plasma; GABA group vs control group, no training): decreased | amount of insulin in plasma (insulin in plasma; GABA training group vs control group): decreased | amount of insulin in plasma (insulin in plasma; GABA training group vs training group, P=0.07): decreased | mitochondrial DNA amount in a skeletal muscle (mitochondrial DNA): tendency of increase | amount of expression of myosin 2a protein in a skeletal muscle (soleus muscle) (myosin 2a protein; GABA group vs control group and training group): tendency to increase | amount of expression of myosin 2a protein in a skeletal muscle (soleus muscle) (myosin 2a protein; GABA training group vs the other 3 groups): significantly increased | amount of increase of running time due to a training (running time to exhaustion) (male ICR mice; fourth week, P=0.14): tendency to be enlarged | amount of increase of running time due to a training (running time to exhaustion) (male ICR mice; second week, P=0.04): significantly enlarged
